{
  "source": "patent US10907199B2",
  "about": "“Double-strand DNA break quantification method” (SOCIETE DE COMMERCIALISATION DES PRODUITS DE LA RECHERCHE …, priority 2017, dated 2021)",
  "target": "T1, terminal deoxynucleotidyl transferase (TdT) (Bos taurus, UniProt P06526)",
  "T1 construct": "purchased Roche (Sigma-Aldrich Canada) 3333574001",
  "T1 sequence (P06526 139-509 limits assumed)": "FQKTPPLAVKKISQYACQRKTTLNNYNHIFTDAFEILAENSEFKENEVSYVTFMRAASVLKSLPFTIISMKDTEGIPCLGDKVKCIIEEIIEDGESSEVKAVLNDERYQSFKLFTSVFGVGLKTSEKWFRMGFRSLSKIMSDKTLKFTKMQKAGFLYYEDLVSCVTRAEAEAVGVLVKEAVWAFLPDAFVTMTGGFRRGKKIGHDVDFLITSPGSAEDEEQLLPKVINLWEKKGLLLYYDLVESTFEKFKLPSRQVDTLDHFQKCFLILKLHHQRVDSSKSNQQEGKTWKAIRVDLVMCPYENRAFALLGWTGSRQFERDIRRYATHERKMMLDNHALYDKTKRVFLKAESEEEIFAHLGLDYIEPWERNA",
  "experiment": "TdT inhibition by ATP: tailing reaction of linearized pBlueScript plasmid with TdT and dATP, read by DNA size shift on agarose gel",
  "format": "biochemical",
  "protocol": "Linearized pBlueScript plasmid was used in a tailing reaction using TdT and dATP following manufacturer's instruction. Different concentrations of ATP were added in the reaction and the tailing efficiency was observed after agarose gel electrophoresis by a shift in the DNA size. It was sought to determine conditions for efficient repair of DNA nicks and gaps prior to the TdT end labeling. A proper combination of T4 DNA ligase and T4 DNA polymerase was used to seal nicks and fill the gaps respectively and termed «Nick and Gap Repair» (NGR). […] Limiting the purification steps is crucial to improve DNA recovery throughout the process. It was observed that TdT is inhibited by the high concentration of ATP recommended for DNA ligations (1 mM, FIG. 6). However, it was determined that efficient DNA nick sealing is still observed by decreasing the ATP concentration to 1 μM. […] From these simple modifications, both repair and labeling reactions can be performed without the need for DNA purification between these steps. It is worth noting that although the use of «Tap» DNA ligase would have the advantage of preventing DSB ligations, T4 DNA ligase was however strongly preferred because of its compatibility with the gap-filling step and its greater nick sealing activity (not shown). The efficiency of the repair step for the specific capture of DSBs within genomic DNA was established using HeLa-I-SceI DNA pre-digested with the nicking endonuclease Nt.BbvCI as this enzyme creates a single nick within a 7 nucleotide recognition sequence. A single Nt.BbvCI recognition sequence is present within the I-SceI insert and can be detected by DBrIC using a primer pair adjacent to the nick (FIG. 5C).",
  "data": [
    {"smiles": "Nc1ncnc2c1ncn2[C@@H]1O[C@H](COP(=O)(O)OP(=O)(O)OP(=O)(O)O)[C@@H](O)[C@H]1O", "note": "[ATP, adenosine triphosphate]", "values": [
      {"measurement": "subsequent TdT reaction in presence of ATP", "setting": "1 μM ATP", "result": "proceed normally"},
      {"measurement": "enzymatic activity of the TdT in presence of ATP", "setting": "10 μM ATP (usual concentration for DNA ligase and DNA polymerase), FIG. 6", "result": "inhibit"},
      {"measurement": "TdT enzymatic activity (tailing efficiency) in presence of ATP", "setting": "1 mM ATP (high concentration recommended for DNA ligations), FIG. 6", "result": "inhibited"}
    ]}
  ]
}
